# Like-named read-outs stand apart in the source and are kept apart here.
# Legend:
# [1] = tested on: PANC-1 cell line; experiment: MTT assay, PANC-1 cells; type: cell-based, human; conditions: MTT, 24 h, read-out: IC50 against PANC-1
# Procedure: Cisplatin was used as a reference drug. […] There are hydroxyl and methoxy substituents on the phenyl ring attached to the benzimidazole. It has also been derivatized using different groups on the phenyl ring close to oxadiazole.
# (§1) Many analyses are performed to determine cell proliferation. MTT analysis is one of the viability determination tests. According to the working mechanism of the method, the dye containing the tetrazolium ring reacts with the dehydrogenase enzymes in the cells, only to be reduced and broken down by the metabolic cells, turning into water-insoluble formazan crystals. Color changes associated with mitochondrial activity and resulting from the addition of a solvent as a result of the reaction are measured in the microplate reader as optical density data values.[30] Cells were planted in flat-bottomed, 96-well, sterile, lidded, disposable microplates with 1 × 10^4 cells per well in 200 μL of appropriate medium and were allowed to adhere to the plate bottom by incubating for 24 h. At the end of 24 h, 100 μL of medium was withdrawn, and test substances at different concentrations, prepared in 100 μL, were added. Following the substance application, after a 24 h incubation period, 20 μL of stock MTT solution (MTT solution dissolved in 5 mg/mL PBS and filtered before application) was added to each well and protected from light, and the incubation continued for 3 h. Then, the media of the cells were completely withdrawn, and 100 μL of DMSO was added to dissolve the formazan crystals. After shaking in the dark for 15 min, the optical densities (absorbance) of the color changes at 540–570 and 650 nm reference wavelengths were read in the microplate reader. The data were calculated and created in Microsoft Office Excel. For this purpose, first, the blind well value and the control groups of colored substances were removed from the optical readings. The averages of optical densities and % viability values were made from Excel formula calculations, and the results were discussed. The viability of the control group was assumed to be 100%, and all other viability values were calculated based on this (series were run in n = 5 replicates).
# [2] = tested on: A549 cell line; experiment: MTT assay, A549 cells; type: cell-based, human; conditions: MTT, 24 h, read-out: IC50 against A549
# Procedure: (§2) The synthesized compounds 4a–4s were screened for their in vitro anticancer activity via the standard MTT assay using three human tumor cell lines, namely, the human lung adenocarcinoma cell line (A549), the human breast cancer cell line (MCF-7), and the human pancreas cell line (PANC-1). Cisplatin was used as a reference drug. […] When the structures of the compounds are evaluated, it is seen that the compounds are derived from two different sources. There are hydroxyl and methoxy substituents on the phenyl ring attached to the benzimidazole. It has also been derivatized using different groups on the phenyl ring close to oxadiazole. When the activities in the PANC-1 cell line are evaluated, it is seen that the activity of compounds bearing the 2,4-dichloro substituent is especially high.
# as §1
# [3] = tested on: MCF-7 cell line; experiment: MTT assay, MCF-7 cells; type: cell-based, human; conditions: read-out: IC50 against MCF-7
# Procedure: as §2, §1
# [4] = tested on: hTERT-HPNE cell line; experiment: MTT assay, normal pancreas hTERT-HPNE cells; type: cell-based; conditions: normal human pancreas cells, 24 h, read-out: IC50 against hTERT-HPNE
# Procedure: (§3) By comparing the compounds’ cytotoxic effects against tumor cell lines and normal cell lines, the drug safety parameter for the anticancer activity of the compounds was evaluated, thereby confirming their cytoprotective qualities. In this study, normal human lung (CCD-19Lu) and normal human pancreas (hTERT-HPNE) cell lines were used as controls. The selectivity index (SI) calculated for the compounds tested scales the IC50 values of the compounds against various tumor cell lines with the IC50 values against normal cell lines (Table 2). […] The differential selectivity indices underscore the importance of targeted therapeutic strategies and the potential for these compounds to provide selective anticancer effects with reduced toxicity to normal cells.
# as §1
# [5] = tested on: CCD-19Lu cell line; experiment: MTT assay, normal lung CCD-19Lu cells; type: cell-based; conditions: normal human lung cells, 24 h, read-out: IC50 against CCD-19Lu
# Procedure: as §3, §1
Compound,"IC50 ([1]; Homo sapiens, PANC-1, 24 h)","IC50 ([2]; Homo sapiens, A549)","IC50 ([3]; Homo sapiens, MCF7, 24 h)",IC50 [1],IC50 [2],IC50 ([3]; 24 h),IC50 [4],IC50 ([5]; CCD 19Lu),IC50 [5]
"O=C(CSc1nnc(-c2ccc3nc(-c4ccc(O)cc4)[nH]c3c2)o1)c1ccc(F)cc1 [4d, 2-((5-(2-(4-Hydroxyphenyl)-1H-benzimidazol-6-yl)-1,3,4-oxadiazol-2-yl)thio)-1-(4-florophenyl)-ethanone]",33.3 µM,10.3 µM,10.1 µM,–,–,–,6.8 µM,5.2 µM,–
"2-((5-(2-(4-Hydroxyphenyl)-1H-benzimidazol-6-yl)-1,3,4-oxadiazol-2-yl)thio)-1-(4-methylphenyl)-ethanone [4b]",–,–,–,33.1 µM,5.1 µM,17.4 µM,86.8 µM,–,40.3 µM
"O=C(CSc1nnc(-c2ccc3nc(-c4ccc(O)cc4)[nH]c3c2)o1)c1ccc(Br)cc1 [4e, 2-((5-(2-(4-Hydroxyphenyl)-1H-benzimidazol-6-yl)-1,3,4-oxadiazol-2-yl)thio)-1-(4-bromophenyl)-ethanone]",83.8 µM,96.1 µM,95.2 µM,–,–,–,11.3 µM,95.3 µM,–
"N.N.[Cl][Pt][Cl] [cisplatin, reference compound]",–,–,–,28.8 µM,19.7 µM,14.7 µM,30.6 µM,–,22.6 µM
"O=C(CSc1nnc(-c2ccc3nc(-c4ccc(O)cc4)[nH]c3c2)o1)c1ccccc1 [4a, 2-((5-(2-(4-Hydroxyphenyl)-1H-benzimidazol-6-yl)-1,3,4-oxadiazol-2-yl)thio)-1-phenyl-ethanone]",42.2 µM,63.2 µM,39.5 µM,–,–,–,26.2 µM,46.1 µM,–
"N#Cc1ccc(C(=O)CSc2nnc(-c3ccc4nc(-c5ccc(O)cc5)[nH]c4c3)o2)cc1 [4f, 2-((5-(2-(4-Hydroxyphenyl)-1H-benzimidazol-6-yl)-1,3,4-oxadiazol-2-yl)thio)-1-(4-cyanophenyl)-ethanone]",60.4 µM,50.7 µM,45.6 µM,–,–,–,74.9 µM,68.8 µM,–
"COc1ccc(-c2nc3ccc(-c4nnc(SCC(=O)c5ccccc5)o4)cc3[nH]2)cc1 [4j, 2-((5-(2-(4-Methoxyphenyl)-1H-benzimidazol-6-yl)-1,3,4-oxadiazol-2-yl)thio)-1-phenyl-ethanone]",95.7 µM,99.1 µM,53.7 µM,–,–,–,93.6 µM,95.2 µM,–
"O=C(CSc1nnc(-c2ccc3nc(-c4ccc(O)cc4)[nH]c3c2)o1)c1ccc(O)c(O)c1 [4i, 2-((5-(2-(4-Hydroxyphenyl)-1H-benzimidazol-6-yl)-1,3,4-oxadiazol-2-yl)thio)-1-(3,4-dihydroxyphenyl)-ethanone]",23.8 µM,21.1 µM,16.5 µM,–,–,–,10.1 µM,13.9 µM,–
"O=C(CSc1nnc(-c2ccc3nc(-c4ccc(O)cc4)[nH]c3c2)o1)c1ccc(Cl)cc1 [4c, 2-((5-(2-(4-Hydroxyphenyl)-1H-benzimidazol-6-yl)-1,3,4-oxadiazol-2-yl)thio)-1-(4-chlorophenyl)-ethanone]",17.7 µM,6.3 µM,6.1 µM,–,–,–,21.5 µM,16.3 µM,–
"O=C(CSc1nnc(-c2ccc3nc(-c4ccc(O)cc4)[nH]c3c2)o1)c1ccc(F)cc1F [4g, 2-((5-(2-(4-Hydroxyphenyl)-1H-benzimidazol-6-yl)-1,3,4-oxadiazol-2-yl)thio)-1-(2,4-diflorophenyl)-ethanone]",36.6 µM,16.8 µM,30.7 µM,–,–,–,17.1 µM,31.8 µM,–
"O=C(CSc1nnc(-c2ccc3nc(-c4ccc(O)cc4)[nH]c3c2)o1)c1ccc(Cl)cc1Cl [4h, 2-((5-(2-(4-Hydroxyphenyl)-1H-benzimidazol-6-yl)-1,3,4-oxadiazol-2-yl)thio)-1-(2,4-dichlorophenyl)-ethanone]",26.7 µM,14.6 µM,15.7 µM,–,–,–,32.9 µM,30.3 µM,–

# Now from value to compound, other results behind:
"IC50 ([1]; Homo sapiens, PANC-1, 24 h)","IC50 ([2]; Homo sapiens, A549)","IC50 ([3]; Homo sapiens, MCF7, 24 h)",IC50 [1],IC50 [2],IC50 ([3]; 24 h),Compound,IC50 [4],IC50 ([5]; CCD 19Lu),IC50 [5]
29.5 µM,19.6 µM,28.9 µM,–,–,–,"COc1ccc(-c2nc3ccc(-c4nnc(SCC(=O)c5ccc(Br)cc5)o4)cc3[nH]2)cc1 [4n, 2-((5-(2-(4-Methoxyphenyl)-1H-benzimidazol-6-yl)-1,3,4-oxadiazol-2-yl)thio)-1-(4-bromophenyl)-ethanone]",36.2 µM,36.8 µM,–
70.9 µM,65.2 µM,49.2 µM,–,–,–,"COc1ccc(-c2nc3ccc(-c4nnc(SCC(=O)c5ccc(C#N)cc5)o4)cc3[nH]2)cc1 [4o, 2-((5-(2-(4-Methoxyphenyl)-1H-benzimidazol-6-yl)-1,3,4-oxadiazol-2-yl)thio)-1-(4-cyanophenyl)-ethanone]",64.2 µM,48.4 µM,–
41.1 µM,25.3 µM,36.9 µM,–,–,–,"COc1ccc(-c2nc3ccc(-c4nnc(SCC(=O)c5ccc(F)cc5)o4)cc3[nH]2)cc1 [4m, 2-((5-(2-(4-Methoxyphenyl)-1H-benzimidazol-6-yl)-1,3,4-oxadiazol-2-yl)thio)-1-(4-florophenyl)-ethanone]",28.6 µM,20.2 µM,–
42.1 µM,49.1 µM,22.6 µM,–,–,–,"COc1ccc(-c2nc3ccc(-c4nnc(SCC(=O)c5ccc(Cl)cc5)o4)cc3[nH]2)cc1 [4l, 2-((5-(2-(4-Methoxyphenyl)-1H-benzimidazol-6-yl)-1,3,4-oxadiazol-2-yl)thio)-1-(4-chlorophenyl)-ethanone]",19.5 µM,47.8 µM,–
32.6 µM,14.9 µM,37.1 µM,–,–,–,"COc1ccc(-c2nc3ccc(-c4nnc(SCC(=O)c5ccc(F)cc5F)o4)cc3[nH]2)cc1 [4p, 2-((5-(2-(4-Methoxyphenyl)-1H-benzimidazol-6-yl)-1,3,4-oxadiazol-2-yl)thio)-1-(2,4-diflorophenyl)-ethanone]",20.4 µM,14.7 µM,–
–,–,–,82 µM,74.7 µM,50.2 µM,"2-((5-(2-(4-Methoxyphenyl)-1H-benzimidazol-6-yl)-1,3,4-oxadiazol-2-yl)thio)-1-(4-methylphenyl)-ethanone [4k]",29.3 µM,–,90.4 µM

# From paper PMC11866186, “Novel Benzimidazole–Oxadiazole Derivatives as Anticancer Agents with VEGFR2 Inhibitory Activity: Design, Synthesis, In Vitro Anticancer Evaluation, and In Silico Studies” (ACS Omega, 2025)
